Here are results for 2 molecules from patent US20230157935A1, “GADUSOL-CONTAINING SUNSCREEN FORMULATIONS” (Arcaea, LLC, priority 2021, published 2023).

For one series, the system named is erythrocytes. Kind of series: Cell-based antioxidant protection in erythrocytes (CAP-e) assay. Here is the method:
The cell-based antioxidant protection in erythrocytes (CAP-e) assay (Honzel et. al., 2008, and Jensen G S. Cell-based antioxidant protection assay, also disclosed in U.S. Pat. No. 8,465,988, incorporated herein in its entirety by this reference) was used. This testing was selected to measure antioxidant power but, in addition, the method ensures that the antioxidant agent crosses the cell's lipid boundary layer so that only intracytoplasmic activity is measured. […] The tested concentrations for both gadusol and the porphyra-334 ranged from 0.001 to 3.33 mg/mL.

A further series in a line: Comet assay. In kind it is cell-based. From the text: (§1) The amount of gadusol incorporated to provide the intended in vivo sunscreen SPF boosting activity can be from about 0.25, 0.50, 0.75, 1.0, 1.25, 1.50, 1.75, or 2.0% (w/w) in the sunscreen formulation that includes a physical/inorganic sunscreen active material, where any value can form an upper or lower endpoint, as appropriate. Still further, the amount of gadusol in the sunscreen formulation can be from about 0.25 to 2.0% (w/w), or from about 0.5 to 1.0% (w/w). In these, and possibly other amounts, gadusol suitably can provide a safe and effective sunscreen boosting effect when combined with sunscreen active ingredients. […] To summarize these safety tests, the cellular toxicity of gadusol was compared to that of a common sunscreen ingredient, oxybenzone. Vero E6 fibroblasts were used to evaluate toxicity. […] Toxicity towards E. coli was also not found.

The test system of a further series is Vero E6 fibroblasts. Kind of series: Cellular toxicity compared to oxybenzone. It counts as cell-based.
Excerpt: as §1

The next series relates to E. coli. Kind of series: Toxicity towards E. coli. It counts as cell-based.
Excerpt: as §1

A short description of another series: Ames Test. In kind it is cell-based.
A short description of series [1]: Stability of aqueous gadusol under acidic conditions, spectrophotometric at 296 nm. In kind it is physicochemical. The method, then: Yet further, the inventors have determined that the stability of aqueous gadusol can be improved when stored under acidic conditions. For example, 90% gadusol activity can be retained after 90 days at pH 2.5, where the concentration of gadusol is determined spectrophotometrically at 296 nm where it has an extinction coefficient of 21,800 M^−1cm^−1. A standardized concentration curve can be used to determine an amount of gadusol in a volume sampled from a test solution at various time periods. Therefore, storage under acidic conditions may be useful for stabilizing gadusol generally, e.g., prior to introduction into a topical formulation. Combining gadusol with another antioxidant may be useful for extending the shelf life or stability of gadusol in a topical formulation.

For series [2], the system named is human skin (subject's back). Kind of series: In vivo SPF determination (FDA 21 CFR 201.327, MEDp/MEDu). From the text: SPF can be measured in vivo according to the methodology set out in FDA 2011 Final Rule issued on Jun. 17, 2011, by the Federal Register. This method is very similar to the ISO 24444:2010 method used to measure SPF in the EU, as well as other countries. In fact, both methods are based on the International Sun Protection Factor (SPF) test method, COLIPA: Bruxelles, Belgium, 2006. The slight differences between the ISO and FDA methods are understood to generate no meaningful difference in the results. […] The main differences between the methods are the following: the calibration times of the UV source (each 12 months for the FDA, each 18 months for the ISO); the reference sunscreen products (P2 for the FDA and P2, P3 or P7 for the ISO); progressions of exposure times used. The disclosures of each of these in vivo SPF testing methods are incorporated herein their entirety by this reference.
The product is then labeled with the appropriate SPF value indicating the amount of sunburn protection provided by the product.
An in vivo SPF determination was conducted according to FDA, 21 CFR Sec. 201.327, subpart (i), SPF Test Procedure, Sunscreen Drug Products for Over-the-Counter Human Use, Final Monograph, Federal Register, Vol. 76, No. 117, Jun. 17, 2011, the disclosure of which is incorporated herein in its entirety by this reference. […]
For a baseline value, a series of 5 UV radiation doses expressed as Joules/square meter, increasing in 25% increments, was administered to two unprotected separate locations on each test subject's back, just below the shoulder blades and above the belt-line, to determine the initial unprotected MED (MEDu).
On Day 2, subjects returned to the testing laboratory within 16 to 24 hours following completion of the MEDu doses for evaluation of their responses, and to determine each subject's unprotected MED (MEDu). A subject's Minimal Erythemal Dose (MED) was the quantity of erythema effective energy, or dose corresponding to the first site that produced the first unambiguous erythema reaction with well-defined borders. […]

Series [3] in a line: In vitro SPF determination on VitroSkin, absorbance scan 290-400 nm. In kind it is physicochemical. The method, then: SPF can also be evaluated using an in vitro method that utilizes a synthetic/simulated skin as a test substrate. In this regard, VitroSkin® is an advanced testing substrate that effectively mimics the surface properties of human skin. It has been formulated to have topography, pH, critical surface tension, chemical reactivity and ionic strength that is similar to human skin.
SPF was also evaluated using an in vitro method that utilizes a synthetic/simulated skin as a test substrate. In this regard, VitroSkin® is an advanced testing substrate that effectively mimics the surface properties of human skin. It has been formulated to have topography, pH, critical surface tension, chemical reactivity and ionic strength that is similar to human skin. The procedure for in vitro testing was conducted according to a standard protocol. For testing, the test product was applied in a known amount to the substrate at an application density of 2 mg/cm^2. The in vitro SPF scores were determined using a Labsphere UV-1000 Ultraviolet Transmittance Analyzer. Spectral scans of absorbance of the artificial skin treated with a sample sunscreen formulation were performed in the UV region of 290-400 nm. The in vitro SPF was then calculated using the absorbance scan results. At least 5 in vitro SPF values were recorded for each example formulation and the averages calculated for reporting.

Series [4] is described as follows: Folin-Ciocalteu antioxidant capacity. The note with it: about 0.3 to 10 mg/ml.

`COC1=C(O)CC(O)(CO)C(O)C1=O` (stereo not shown) [gadusol]: the antioxidant activity result with erythrocytes (0.133 mg/ml) is “Some in vivo antioxidant activity”. For the same molecule, in the series with erythrocytes (about 1 mg/ml), the “antioxidant activity versus porphyra-334” value is recorded as “significantly more active”. Besides, the “toxicity in the comet assay” value in “Comet assay” is recorded as “nor was it toxic”. Moreover, the cellular toxicity result in the series on Vero E6 fibroblasts is on record as “less toxic”. For the same molecule, the “toxicity towards E. coli” value in the series with E. coli is listed as “not found”. The mutagenicity entry in “Ames Test” is “not to be mutagenic”. In series [1] (aqueous, after 90 days at pH 2.5), this molecule showed a gadusol activity retained of 90%. Moreover, in series [1] (at 296 nm), the extinction coefficient is 21,800 M^−1cm^−1. Besides, the entries for the “in vivo SPF relative to SPF conferred by 10% ZnO alone” value in series [2] (0.5% gadusol (w/w) in 10% ZnO formulation), in series [2] (0.75% gadusol (w/w) in 10% ZnO formulation) and in series [2] (1.0% gadusol (w/w) in 10% ZnO formulation) were “about 1.35 times”, ~1.51 times and ~2.0 times, respectively. For the same molecule, in series [3] (0.25-0.5% gadusol, no ZnO), the “in vitro SPF activity of gadusol by itself, formulation matrix (1.1) subtracted” value is recorded as 2.5-2.8 SPF units. Further, in series [3] (0.5% (w/w) gadusol, in vitro), the “greater SPF when added to composition containing 10% ZnO” value is reported as ~50%. Further, in series [3] (0.5% gadusol, about 290 to about 325 nm, FIG. 6), the “in vitro absorbance on addition to 10% ZnO sunscreen formulation” value is “significantly more absorbance”. The “antioxidant power versus mycosporine compound from nori seaweed (porphyra-334)” value in [4] is given as “substantially equivalent”.

For the molecule `COC1=C(NCC(=O)O)C[C@@](O)(CO)CC1=N[C@H](C(=O)O)[C@@H](C)O` [porphyra-334, reference compound], in the series with erythrocytes (gadusol and porphyra-334 combined), the “interference with the protective action of gadusol when combined” value is reported as “did not interfere”.
